Patent publication US8952014B2, “Pyrimidine derivatives which are CGRP—antagonists” (Boehringer Ingelheim International GmbH, priority 2008, dated 2015)

Target: T1, human CGRP receptor (Homo sapiens, UniProt O60894+Q16602)
T1 construct: SK-N-MC membranes (˜20 μg protein) are incubated for 180 minutes at ambient temperature; endogenous in cells; host or cells: SK-N-MC cells (membranes)
Assay: Binding studies with SK-N-MC cells (125I-CGRP displacement from membranes)
Settings: 50 pM 125I-iodotyrosyl-CGRP, 180 min, ambient temperature
Method: A. Binding Studies with SK-N-MC Cells (Expressing the Human CGRP Receptor)
SK-N-MC membranes (˜20 μg protein) are incubated for 180 minutes at ambient temperature with 50 pM ^125I-iodotyrosyl-Calcitonin-Gene-Related Peptide and increasing concentrations of the test substances in a total volume of 250 μl (assay buffer: 10 mM tris, 50 mM NaCl, 5 mM MgCl2, 1 mM EDTA, pH=7.4). The incubation is ended by rapid filtration through GF/B-glass fibre filters treated with polyethyleneimine (0.1%) using a cell harvester. The protein-bound radioactivity is measured using a gamma counter. Non-specific binding is defined as the bound radioactivity after the presence of 1 μM BIBN4096BS during incubation.
The concentration binding curves are analysed using computer-aided non-linear curve fitting.

T1 sequence (Q16602 23-461): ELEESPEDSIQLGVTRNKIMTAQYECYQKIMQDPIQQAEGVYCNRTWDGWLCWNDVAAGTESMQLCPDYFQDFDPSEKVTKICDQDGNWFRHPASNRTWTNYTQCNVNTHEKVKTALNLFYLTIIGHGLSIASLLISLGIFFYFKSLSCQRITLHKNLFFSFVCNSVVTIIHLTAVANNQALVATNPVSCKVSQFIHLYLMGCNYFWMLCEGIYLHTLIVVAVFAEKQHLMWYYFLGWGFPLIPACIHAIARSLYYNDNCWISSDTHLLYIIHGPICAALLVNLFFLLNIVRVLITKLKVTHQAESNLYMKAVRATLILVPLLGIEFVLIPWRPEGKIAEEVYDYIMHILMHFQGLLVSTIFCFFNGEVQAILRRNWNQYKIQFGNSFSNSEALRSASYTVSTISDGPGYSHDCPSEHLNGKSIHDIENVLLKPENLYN
T1 sequence (O60894 27-148): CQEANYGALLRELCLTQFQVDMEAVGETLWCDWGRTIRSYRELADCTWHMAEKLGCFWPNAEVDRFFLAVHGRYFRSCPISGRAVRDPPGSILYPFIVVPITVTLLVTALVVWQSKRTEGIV

SMILES	Ki
COc1ccc2c(c1)CCN(C1CCN(c3cc(Oc4ccc(N)c(C)c4)ncn3)CC1)C(=O)N2 [(49)]	154 nM
COc1ccc2c(c1)CCN(C1CCN(c3cc(Oc4cc(C)c5[nH]c(=O)oc5c4)nc(N)n3)CC1)C(=O)N2 [(37)]	65 nM
Cc1cc(Oc2cc(N3CCC(n4c(=O)[nH]c5ncccc54)CC3)ncn2)cc2[nH]c([C@@H]3CCCO3)nc12 [(52)]	27 nM
Cc1nc(Oc2cc(C)c3[nH]c(=O)oc3c2)cc(N2CCC3(CC2)CC(=O)Nc2ncccc23)n1 [(76)]	26 nM

The next compounds have a lower Ki than those just listed; values first:

Ki	SMILES
21 nM	Cc1nc(Oc2cc(C)c3[nH]c(=O)oc3c2)cc(N2CCC3(CC2)C(=O)Nc2ncccc23)n1 [(77)]
15 nM	COc1ccc2c(c1)CCN(C1CCN(c3cc(Oc4cc(C)c5nc[nH]c5c4)ncn3)CC1)C(=O)N2 [(32)]
